Columns and labels:
Format in all cases: cell-based, human
mitofusion 2 (MFN2) = experiment: Real-time qPCR, mitochondrial dynamics gene MFN2; settings: vs TNF-α/IFN-γ-exposed MSC control (TI); FIG. 2B
Experimental: (§1) Real-time qPCR was performed using an Easy-Spin Total RNA Kit (iNtRON, Seongnam, Korea) to extract total RNA from hPD-MSCs and RNA concentration was adjusted to 100 ng/μL using a microplate spectrophotometer (Epoch™ Microplate Spectrophotometer, BioTek, Winooski, VT, USA), and the extracted RNA was reverse transcribed into cDNA using RT PreMix (dT20) (Bioneer, Seoul, Korea) using a SimpliAmp Thermal Cycler (Life Technologies, Carlsbad, CA, USA). Real-time qPCR was performed using a real-time PCR machine (CFX Connect, Bio-Rad, Hercules, CA, USA), SYBR Green Supermix (Bio-Rad) and the relevant primers, and all experiments were performed in triplicate for statistical analysis.
(§2) To investigate mitochondrial dynamics, real-time qPCR was performed to analyze the expression of dynamin-related protein 1 (DRP1), which is a mitochondrial division-related gene, and mitofusion 1 (MFN1) and mitofusion 2 (MFN2), which are […] mitochondrial membrane fusion-related genes. As the real-time qPCR analysis method, the same method described in Experimental Example 1-2 above was used, and the results are shown in FIG. 2B.

IL-6 = experiment: Real-time qPCR, SASP factor IL-6; settings: vs MSCs exposed to TNF-α/IFN-γ; FIG. 4B
Experimental: as §1
In the present experiment, the expression of IL-1β, IL-6, and monocyte chemotactic protein-1 (MCP-1), which are SASP-associated factors of the untreated MSC control, the TNF-α/IFN-γ-exposed MSC control (TI), and the experimental group treated with the example compound in the TNF-α/IFN-γ-exposed MSC control was analyzed by real-time qPCR. As the real-time qPCR analysis method, the same method described in Experimental Example 1-2 above was used, and the results are shown in FIGS. 4A to 4C.

[1] = test system: dynamin-related protein 1 (DRP1); experiment: Real-time qPCR, mitochondrial dynamics gene DRP1; settings: vs TNF-α/IFN-γ-exposed MSC control (TI); FIG. 2B
Experimental: as §1, §2

[2] = test system: TNF-α/IFN-γ-exposed hPD-MSCs; experiment: MSC morphology: bright-field and phalloidin/Hoechst fluorescence images; settings: hPD-MSCs with 2.5 ng/mL TNF-α and 25 ng/mL IFN-γ, 24 hours; FIG. 1A
Experimental: Human placenta-derived mesenchymal stem cells (hPD-MSCs) were harvested from inside the placental chorion, and the harvested cells were cultured in an alpha-Minimum Essential medium (Cytiva, Marlborough, MA, USA) supplemented with 10% fetal bovine serum (ThermoFisher, Waltham, MA, USA), 1% penicillin/streptomycin (ThermoFisher, Waltham, MA, USA), 25 ng/mL human fibroblast growth factor-4 (Peprotech, Rocky Hill, NJ, USA) and 1 μg/mL heparin (Merck, San Francisco, CA, USA). A total of 1×10^5 hPD-MSCs were seeded in a cell culture dish (90×20 mm) (SPL, Pocheon, Korea) and cultured at 37° C. in an incubator containing 5% CO2. The cells were subcultured every 4 days until reaching 70 to 80% confluency. Expanded cells were obtained at passage 12 or 13. During subculture, viable cells were stained with Trypan blue (Merck) and the number of cells was manually counted. […] The morphology of MSCs was confirmed by bright-field images and fluorescence microscope images, stained cells were identified by phalloidin, which specifically labels the F-actin structure, and Hoechst 33342, which labels nuclei, in the fluorescence image, and the results are shown in FIG. 1A. […]

[3] = test system: TNF-α/IFN-γ-exposed hPD-MSCs; experiment: Oxygen consumption rate (OCR), Seahorse XFp Extracellular Flux Analyzer
Experimental: An oxygen consumption rate was measured to assess a mitochondrial metabolic state using a Seahorse XFp Extracellular Flux Analyzer (Agilent, Santa Clara, CA, USA). A total of 10,000 cells/well were seeded in Seahorse XFp cell culture miniplates and cultured with or without TNF-α, IFN-γ and the example compound for 24 hours prior to analysis. The growth medium was replaced with a Seahorse XF base medium containing 2 mM L-glutamine, 5.5 mM D-glucose, and 1 mM sodium pyruvate according to the composition of α-MEM. Cells were treated with 1 μM oligomycin, 0.5 μM FCCP, and 0.5 μM rotenone/antimycin A during the assay. The OCR was measured for 2 minutes after mixing for 3 minutes, and this process was repeated 12 times. A basal OCR was normalized according to the protein concentration determined by BCA analysis.
The OCRs of the untreated MSC control, the TNF-α/IFN-γ-exposed MSC control (TI), and the experimental group treated with the example compound in the TNF-α/IFN-γ-exposed MSC control were measured by the above method, and the results are shown in FIG. 3A.
The basal respiration, ATP production amount, proton leakage, and spare respiratory capacity (SRC) for each of the above samples are shown in FIGS. 3B to 3E.

O=S1(=O)CCN(Cc2cc(NC3CCOCC3)c3[nH]c(-c4ccccc4)cc3c2)CC1 [example compound, 5-[(1,1-dioxido-4-thiomorpholinyl)methyl]-2-phenyl-N-(tetrahydro-2H-pyran-4-yl)-1H-indole-7-amine]
reduction of MFN2 expression (mitofusion 2 (MFN2)): ~50% | IL-6 expression level (IL-6): decreased | DRP1 expression level [1]: slightly reduced | abnormal morphology and disorganized microfilaments (F-actin cytoskeletal structure) [2]: remarkably improved to levels similar to those of the untreated MSC control | spare respiratory capacity (SRC) ([3]; TNF-α/IFN-γ-exposed MSC control treated with compound, FIG. 3E): almost the same value as the untreated MSC control | oxygen consumption rate (OCR) ([3]; TNF-α/IFN-γ-exposed MSCs, 24 hours, FIG. 3A): restored TNF-α/IFN-γ-exposed MSCs to quiescence | decrease of basal respiration ([3]; vs TNF-α/IFN-γ-exposed MSC control (TI), FIG. 3B): about 80 pmol/min/cell | downregulation of oxygen consumption amount for ATP production ([3]; vs TNF-α/IFN-γ-exposed MSC control (TI), FIG. 3C): about 70 pmol/min/cell

Source: patent publication US20240374646A1, “COMPOSITION FOR INHIBITING INFLAMMATION OR AGING OF STEM CELLS, AND METHOD FOR INHIBITING INFLAMMATION OR AGING BY USING SAME” (MITOIMMUNE THERAPEUTICS INC., priority 2021, published 2024)
